Converted amounts (≈) assume the structure as drawn.

The nature of the first series: In vivo pharmacokinetics in C57BL/6 mice. The settings on record: C57BL/6, mouse, plasma, other: intravenous and oral, 3 mg/kg.
As for `CC(c1ccc(-c2cnc3c(-c4ccc(S(N)(=O)=O)c5ccccc45)cnn3c2)cc1)N1CCCC1` (centres unmarked) [Compound 23], the half-life (usually the time in which the quantity being followed falls by half) was in the range of 3 to 4 h.

The next series is described as follows: physchem. As to conditions: pH 7.4.
With `CC(c1ccc(-c2cnc3c(-c4ccc(S(N)(=O)=O)c5ccccc45)cnn3c2)cc1)N1CCCC1` (centres unmarked) [Compound 23], the solubility (usually the concentration that dissolves in the medium under given conditions) came out at 14 µM (≈ 6.97 µg/mL).

The next series in a line: PAMPA permeability.
Details: not given
On to `NS(=O)(=O)c1ccc(-c2cnn3cc(-c4ccc(N5CCNCC5)nc4)cnc23)c2ccccc12` [Compound 12], for which the “PAMPA (x10^−6 cm/s)” value was 8.3 x10^−6 cm/s.
Take `CN(C)CCOc1ccc(-c2cnc3c(-c4ccc(S(N)(=O)=O)c5ccccc45)cnn3c2)cn1` [Compound 13]: the “PAMPA (x10^−6 cm/s)” value is listed as 8.8 x10^−6 cm/s.
On the same count and under the same terms, the result for `NS(=O)(=O)c1ccc(-c2cnn3cc(-c4ccc(OCCN5CCCCC5)nc4)cnc23)c2ccccc12` [Compound 14] reads 364.7 x10^−6 cm/s.
Still for that read-out and setting: the result for `NS(=O)(=O)c1ccc(-c2cnn3cc(-c4ccc(C5CCNCC5)cc4)cnc23)c2ccccc12` [Compound 15] reads 78.6 x10^−6 cm/s; that for `CC(C)(CN1CCCCC1)Oc1ccc(-c2cnc3c(-c4ccc(S(N)(=O)=O)c5ccccc45)cnn3c2)cc1` [Compound 17], 1920.5 x10^−6 cm/s.
The same measure, in the same setting: the result for `NS(=O)(=O)c1ccc(-c2cnn3cc(-c4ccc(OCCN5CCCC5)cc4)cnc23)c2ccccc12` [Compound 18] reads 317 x10^−6 cm/s; that for `CC(C)(N)c1ccc(-c2cnc3c(-c4ccc(S(N)(=O)=O)c5ccccc45)cnn3c2)cc1` [Compound 20], 9.4 x10^−6 cm/s; that for `NS(=O)(=O)c1ccc(-c2cnn3cc(-c4ccc(CN5CCCC5)cc4)cnc23)c2ccccc12` [Compound 22], 467 x10^−6 cm/s.
`CC(c1ccc(-c2cnc3c(-c4ccc(S(N)(=O)=O)c5ccccc45)cnn3c2)cc1)N1CCCC1` (centres unmarked) [Compound 23]: the “PAMPA (x10^−6 cm/s)” value is 1116.0 x10^−6 cm/s.

The values are drawn from PMC6218249 (Bioorganic & medicinal chemistry letters, 2018).
